Data on 8 molecules can be found in patent US20220340598A1, “PYRAZOLOPYRIDINONE COMPOUNDS” (Janssen Pharmaceutica NV, priority 2017, published 2022).

By IC50 is commonly meant the point on the concentration scale where inhibition reaches its midpoint.

The structures appear in SMILES notation.

Assay [1] deals with T1, human FGFR3 V555M enzyme (cytoplasmic domain carrying V555M mutation) (Homo sapiens, UniProt P22607, V555M).
T1 construct: human FGFR3 V555M enzyme (cytoplasmic domain carrying V555M mutation, from Carna Biosciences)
T1 sequence (P22607 397-806 V555M): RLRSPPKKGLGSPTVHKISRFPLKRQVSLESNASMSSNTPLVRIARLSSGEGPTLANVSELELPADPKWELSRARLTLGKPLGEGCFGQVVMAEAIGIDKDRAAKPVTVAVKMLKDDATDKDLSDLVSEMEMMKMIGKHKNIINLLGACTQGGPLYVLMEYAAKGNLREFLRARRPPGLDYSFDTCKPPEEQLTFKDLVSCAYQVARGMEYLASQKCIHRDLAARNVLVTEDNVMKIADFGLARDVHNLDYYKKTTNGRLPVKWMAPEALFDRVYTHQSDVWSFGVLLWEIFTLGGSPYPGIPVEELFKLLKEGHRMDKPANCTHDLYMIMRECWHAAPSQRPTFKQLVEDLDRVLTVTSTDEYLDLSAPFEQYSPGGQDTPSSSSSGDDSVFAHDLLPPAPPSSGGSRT
The assay can be described thus: FGFR3 V555M mobility shift assay (enzymatic assay). It is filed as biochemical. The following applies: 30 μM ATP, 45 minutes at 30° C., Caliper EZ reader II. On the procedure: FGFR3 V555M Mobility Shift Assay (Enzymatic Assay)
In a final reaction volume of 25 μL, 0.04 ng/μL human FGFR3 V555M enzyme (cytoplasmic domain carrying V555M mutation, from Carna Biosciences) was incubated with 30 μM ATP, 1 μM FL-peptide 30 substrate and 250 nL of testing compound (1% DMSO final) in assay buffer (100 mM HEPES pH 7.4, 10 mM MgCl2, 0.003% Brij35, 1 mM DTT). After incubation for 45 minutes at 30° C. the reaction was stopped with 10 μL of 0.5M EDTA pH 8.0, and then 25 μL of reaction mixture was transferred to reading plate and measured on Caliper EZ reader II.

The target of assay [2] is T2, human FGFR3 wild type enzyme (cytoplasmic domain) (Homo sapiens, UniProt P22607).
T2 construct: human FGFR3 wild type enzyme (cytoplasmic domain, from Carna Biosciences)
T2 sequence (P22607 397-806): as the sequence (P22607 397-806 V555M) above, with M159V counted along it
The assay can be described thus: FGFR3 wild type mobility shift assay (enzymatic assay). It is filed as biochemical. The following applies: 75 μM ATP, 50 minutes at 30° C., Caliper EZ reader II. The procedure: FGFR3 Wild Type Mobility Shift Assay (Enzymatic Assay)
In a final reaction volume of 25 μL, 0.04 ng/μL human FGFR3 wild type enzyme (cytoplasmic domain, from Carna Biosciences) was incubated with 75 μM ATP, 1 μM FL-peptide 30 substrate and 250 nL of testing compound (1% DMSO final) in assay buffer (100 mM HEPES pH 7.4, 10 mM MgCl2, 0.003% Brij35, 1 mM DTT). After incubation for 50 minutes at 30° C. the reaction was stopped with 10 μL of 0.5M EDTA pH 8.0, and then 25 μL of reaction mixture was transferred to reading plate and measured on Caliper EZ reader II.

Assay [3] has as its target T3, NIH/3T3 cells overexpressing FGFR3 WT-TACC3 fusion protein (Homo sapiens, UniProt P22607).
T3 construct: fused on or other part: Q9Y6A5 (Transforming acidic coiled-coil-containing protein 3)
The assay is described as follows: NIH/3T3 FGFR3 WT-TACC3 cell proliferation assay. It is filed as cell-based. The note with it: 72-hr incubation, CellTiter Glo; read-out: NIH/3T3 FGFR3 WT-TACC3 CTG (IC50). The procedure: NIH/3T3 FGFR3 WT-TACC3 Cell Proliferation Assay
(§1) In day 1, 90 μL of cell suspension (NIH/3T3 cells overexpressing FGFR3 WT-TACC3 fusion protein) (total 30,000 cells per well in growth medium (DMEM containing 1% Glutamax, 10% FBS and 1% Pen/Strep)) was seeded in a 96-well plate and then incubated overnight at 37° C. and 5% CO2. In day 2, 10 μL of growth medium containing 10-fold stock solution of testing compound was added into cell cultures (9 dose points with 4× serial dilution, starting with 10 μM, 0.1% DMSO final). After 72-hr incubation at 37° C. and 5% CO2, in day 5 a volume of 50 μL CellTiter Glo (CTG) reagent was added into cell-containing 96-well plate and the plate was incubated at room temperature for 10 minutes before RLUs (relative light unit) were measured on a microplate reader with luminescence detection module. The RLU value was normalized to survival % and concentration-response curve was plotted using Prism to calculate IC50 (M), pIC50 (−log IC50) and HillSlope value.
Background: Cellular ATP, detected with luciferase, serves as a proxy for viable cell number.

Assay [4] deals with T4, NIH/3T3 cells overexpressing FGFR3 V555M-TACC3 fusion protein (Homo sapiens, UniProt P22607, V555M, cells depend on it).
T4 construct: fused on or other part: Q9Y6A5 (Transforming acidic coiled-coil-containing protein 3)
T4 sequence (P22607 whole entry V555M, the tested form may be a part): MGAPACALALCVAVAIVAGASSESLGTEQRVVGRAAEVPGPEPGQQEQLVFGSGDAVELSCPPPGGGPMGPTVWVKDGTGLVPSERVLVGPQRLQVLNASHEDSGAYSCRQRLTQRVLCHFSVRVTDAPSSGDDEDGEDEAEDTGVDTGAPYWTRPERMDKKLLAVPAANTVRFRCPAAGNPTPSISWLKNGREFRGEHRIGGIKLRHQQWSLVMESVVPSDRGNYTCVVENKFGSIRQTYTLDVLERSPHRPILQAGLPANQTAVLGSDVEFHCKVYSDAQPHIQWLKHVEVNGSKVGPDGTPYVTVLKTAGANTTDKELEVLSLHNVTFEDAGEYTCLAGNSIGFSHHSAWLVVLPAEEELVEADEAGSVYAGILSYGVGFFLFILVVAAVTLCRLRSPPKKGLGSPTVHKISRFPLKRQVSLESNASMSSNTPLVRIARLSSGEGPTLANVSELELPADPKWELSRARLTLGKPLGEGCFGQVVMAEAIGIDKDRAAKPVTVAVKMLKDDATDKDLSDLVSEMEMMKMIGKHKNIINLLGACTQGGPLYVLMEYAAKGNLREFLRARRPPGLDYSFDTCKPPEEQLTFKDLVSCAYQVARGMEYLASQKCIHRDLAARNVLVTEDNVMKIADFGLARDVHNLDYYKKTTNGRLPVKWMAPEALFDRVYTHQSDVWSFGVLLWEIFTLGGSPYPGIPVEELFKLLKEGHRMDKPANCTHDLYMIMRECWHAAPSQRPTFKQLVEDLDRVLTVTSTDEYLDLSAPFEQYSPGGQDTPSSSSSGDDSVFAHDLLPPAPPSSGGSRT
The assay can be described thus: NIH/3T3 FGFR3 V555M-TACC3 cell proliferation assay. The following applies: 72-hr incubation, CellTiter Glo; read-out: NIH/3T3 FGFR3 V555M-TACC3 CTG (IC50). It is filed as cell-based. On the procedure: NIH/3T3 FGFR3 V555M-TACC3 Cell Proliferation Assay
as §1, with “V555M-TACC3” for “WT-TACC3”

T3 sequence (P22607 whole entry, change not shown, the tested form may be a part): as the sequence (P22607 whole entry V555M, the tested form may be a part) above, with M555V counted along it

As to `CC(C)C(Nc1c(-c2nc3ccc(C(N)=O)cc3[nH]2)c(=O)[nH]c2cn(C)nc12)c1ncccn1` (single isomer, unassigned) [Compound 9, (S*)-2-(2-methyl-7-((2-methyl-1-(pyrimidin-2-yl)propyl)amino)-5-oxo-4,5-dihydro-2H-pyrazolo[4,3-b]pyridin-6-yl)-1H-benzo[d]imidazole-6-carboxamide], the IC50 in assay [1] amounted to 0.803 nM; in assay [2] it was 4.33 nM. Also, the GI50 in assay [3] came to 202 nM; in assay [4], 200 nM.

For `CC(C)C(Nc1c(-c2nc3ccc(C(=O)N(C)C)cc3[nH]2)c(=O)[nH]c2cn(C)nc12)c1ncccn1` (single isomer, unassigned) [Compound 10, (S*)—N,N-dimethyl-2-(2-methyl-7-((2-methyl-1-(pyrimidin-2-yl)propyl)amino)-5-oxo-4,5-dihydro-2H-pyrazolo[4,3-b]pyridin-6-yl)-1H-benzo[d]imidazole-6-carboxamide], the 50% inhibitory concentration (IC50) in assay [1] stood at 0.673 nM; in assay [2] it was 2.57 nM. The GI50 in assay [3] stood at 54.2 nM; in assay [4], 31.9 nM.

For the molecule `CC(C)C(Nc1c(-c2nc3cnc(N(C)C)cc3[nH]2)c(=O)[nH]c2cn(C)nc12)c1ncccn1` (single isomer, unassigned) [Compound 11, (S*)-6-(6-(dimethylamino)-1H-imidazo[4,5-c]pyridin-2-yl)-2-methyl-7-((2-methyl-1-(pyrimidin-2-yl)propyl)amino)-2H-pyrazolo[4,3-b]pyridin-5(4H)-one], the IC50 in assay [1] turned out to be 1.05 nM; in assay [2], 6.77 nM. Besides, the values for the GI50 in assay [3] and in assay [4] were 67.1 nM and 50.7 nM, respectively.

For the molecule `COc1ccc2nc(-c3c(N[C@H](c4ncccn4)C(C)C)c4nn(C)cc4[nH]c3=O)[nH]c2c1` (single isomer, unassigned) [Compound 15, (S*)-6(5-Methoxy-1H-benzo[d]imidazol-2-yl)-2-methyl-7-((2-methyl-1-(pyrimidin-2-yl)propyl)amino)-2H-pyrazolo[4,3-b]pyridin-5(4H)-one], the IC50 is 0.753 nM in assay [1] and 4.52 nM in assay [2]. Besides, the GI50 in assay [3] amounted to 65 nM; in assay [4], 45.9 nM.

`CC(C)[C@H](Nc1c(-c2nc3cnccc3[nH]2)c(=O)[nH]c2cn(C)nc12)c1ncccn1` (single isomer, unassigned) [Compound 24, (S*)-6-(1H-imidazo[4,5-c]pyridin-2-yl)-2-methyl-7-((2-methyl-1-(pyrimidin-2-yl)propyl)amino)-2H-pyrazolo[4,3-b]pyridin-5(4H)-one]: the half-inhibitory concentration (IC50) was 2.5 nM in assay [1] and 13.5 nM in assay [2]. Besides, the GI50 in assay [3] turned out to be 166 nM; in assay [4], 117 nM.

As to `COCC(Nc1c(-c2nc3cc(OC)c(OC)cc3[nH]2)c(=O)[nH]c2cn(C)nc12)c1ncccn1` (single isomer, unassigned) [Compound 25, (S*)-6-(5,6-dimethoxy-1H-benzo[d]imidazol-2-yl)-7-((2-methoxy-1-(pyrimidin-2-yl)ethyl)amino)-2-methyl-2H-pyrazolo[4,3-b]pyridin-5(4H)-one], the IC50 in assay [1] turned out to be 2.65 nM; in assay [2] it was 15.4 nM. Moreover, the GI50 worked out at 357 nM in assay [3] and 359 nM in assay [4].

`COc1cc2nc(-c3c(NC(c4ncccn4)C(C)C)c4nn(C)cc4[nH]c3=O)[nH]c2cc1OC` (single isomer, unassigned) [Compound 27, (S*)-6-(5,6-dimethoxy-1H-benzo[d]imidazol-2-yl)-2-methyl-7-((2-methyl-1-(pyrimidin-2-yl)propyl)amino)-2H-pyrazolo[4,3-b]pyridin-5(4H)-one]: the IC50 in assay [1] was found to be 1.14 nM; in assay [2], 4.82 nM. Besides, the values for the GI50 in assay [3] and in assay [4] were 40.2 nM and 31.2 nM, respectively.

Turning to `CC[C@H](Nc1c(-c2nc3ccc(OCCOC)cc3[nH]2)c(=O)[nH]c2cn(C)nc12)c1ncccn1` (single isomer, unassigned) [Compound 48, (S*)-6(6-(2-methoxyethoxy)-1H-benzol-2-yl)-2-methyl-7-((1-(pyrimidin-2-yl)propyl)amino)-2H-pyrazolo[4,3-b]pyridin-5(4H)-one], the IC50 is 0.634 nM in assay [1] and 1.45 nM in assay [2]. In addition, the figures for the GI50 in assay [3] and in assay [4] were 17.1 nM and 112 nM, respectively.
